Source: US20110218199A1, “PYRIDONEAMIDE DERIVATIVES, THEIR MANUFACTURE AND USE AS PHARMACEUTICAL AGENTS” (priority 2007, published 2011)
pIC50: −log10 of the molar value.

What was measured:
FAK Kinase Domain (KD) = molecular target: T1, FAK Kinase Domain (KD) (Homo sapiens, UniProt Q05397); experiment: IC50 determination for inhibitors of FAK (ELISA-type assay); assay type: biochemical; details: FAK kinase domain from baculo Sf9, biotinylated FAK-397 peptide, 10 μM ATP, 30 min, read-out: IC50 FAK inhibition
T1 construct: FAK Kinase Domain (KD) from baculo Sf9 was used; made in house; host or cells: baculovirus / Sf9 insect cells

HCT 116 cells = experiment: CellTiter-Glo assay in HCT 116 cells (antiproliferative activity); assay type: cell-based; details: Homo sapiens, HCT-116, 120 h, CellTiter-Glo cell viability, HCT 116 human colon carcinoma, 5 days (120 h) incubation
Text: Antiproliferative Activity:
CellTiter-Glo™ Assay in HCT 116 Cells:
The CellTiter-Glo™ Luminescent Cell Viability Assay (Promega) is a homogeneous method of determining the number of viable cells in culture based on quantitation of the ATP present, which signals the presence of metabolically active cells.
HCT 116 cells (human colon carcinoma, ATCC-No. CCl-247) were cultivated in RPMI 1640 medium with GlutaMAX• I (Invitrogen, Cat-No. 61870-010), 5% Fetal Calf Serum (FCS, Sigma Cat-No. F4135 (FBS)); 100 Units/ml penicillin/100 μg/ml streptomycin (=Pen/Strep from Invitrogen Cat. No. 15140). For the assay the cells were seeded in 384 well plates, 1000 cells per well, in the same medium. The next day the test compounds were added in various concentrations ranging from 30 μM to 0.0015 μM (10 concentrations, 1:3 diluted). After 5 days the CellTiter-Glo™ assay was done according to the instructions of the manufacturer (CellTiter-Glo™ Luminescent Cell Viability Assay, from Promega). In brief: the cell-plate was equilibrated to room temperature for approximately 30 minutes and than the CellTiter-Glo™ reagent was added. The contents were carefully mixed for 15 minutes to induce cell lysis. After 45 minutes the luminescent signal was measured in Victor 2, (scanning multiwell spectrophotometer, Wallac).
1st. Day: • Medium: RPMI 1640 with GlutaMAX™ I (Invitrogen, Cat-Nr. 61870), 5% FCS (Sigma Cat.-No. F4135), Pen/Strep (Invitrogen, Cat No. 15140). • HCT116 (ATCC-No. CC1-247): 1000 cells in 60 μl per well of 384 well plate (Greiner 781098, μClear-plate white) • After seeding incubate plates 24 h at 37° C., 5% CO2
2nd. Day: Induction (Treatment with Compounds, 10 Concentrations):
In order to achieve a final concentration of 30 μM as highest concentration 3.5 μl of 10 mM compound stock solution were added directly to 163 μl media. Then step e) of the dilution procedure described below, was followed.
In order to achieve the second highest to the lowest concentrations, a serial dilution with dilution steps of 1:3 was followed according to the procedure (a-e) as described here below: • a) for the second highest concentration add 10 μl of 10 mM stock solution of compound to 20 μl dimethylsulfoxide (DMSO) • b) dilute 8×1:3 (always 10 μl to 20 μl DMSO) in this DMSO dilution row (results in 9 wells with concentrations from 3333.3 μM to 0.51 μM) • c) dilute each concentration 1: 47.6 (3.5 μl compound dilution to 163 μl media) • d) add 10 μl of every concentration to 60 μl media in the cell plate resulting in final concentration of DMSO: 0.3% in every well and resulting in 10 final concentration of compounds ranging from 30 μM to 0.0015 μM. • Each compound is tested in triplicate. • Incubate 120 h (5 days) at 37° C., 5% CO2 […]
Add 30 μl CellTiter-Glo™ Reagent (prepared from CellTiter-Glo™ Buffer and CellTiter-Glo™ Substrate (lyophilized) purchased from Promega) per well, shake 15 minutes at room temperature incubate further 45 minutes at room temperature without shaking
Victor 2 scanning multiwell spectrophotometer (Wallac), Luminescence mode (0.5 sec/read, 477 nm) Determine IC50 using a non-linear curve fit (XLfit software (ID Business Solution Ltd., Guilford, Surrey, UK))

T1 sequence (Q05397 422-680 limits assumed, species assumed): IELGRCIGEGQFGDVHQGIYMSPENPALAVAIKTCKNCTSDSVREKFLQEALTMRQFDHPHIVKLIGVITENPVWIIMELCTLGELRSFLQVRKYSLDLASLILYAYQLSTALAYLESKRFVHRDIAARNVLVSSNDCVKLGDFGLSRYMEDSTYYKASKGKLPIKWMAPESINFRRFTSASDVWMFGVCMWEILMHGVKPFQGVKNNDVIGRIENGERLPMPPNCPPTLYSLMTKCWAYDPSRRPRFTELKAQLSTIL

| pIC50 (FAK Kinase Domain (KD)) | pIC50 (HCT 116 cells) | SMILES |
| --- | --- | --- |
| 7.03 | – | O=C(Nc1cccc(N2CCCC2)c1)c1c(NC[C@@H](O)c2ccccc2)cc[nH]c1=O [Example 2d, 4-((S)-2-Hydroxy-2-phenyl-ethylamino)-2-oxo-1,2-dihydro-pyridine-3-carboxylic acid (3-pyrrolidin-1-yl-phenyl)-amide] |
| 6.84 | 5.13 | O=C(Nc1ccc(N2CCOCC2)c(F)c1)c1c(NCc2ccccn2)cc[nH]c1=O [Example 1, 2-Oxo-4-[(pyridin-2-ylmethyl)-amino]-1,2-dihydro-pyridine-3-carboxylic acid(3-fluoro-4-morpholin-4-yl-phenyl)-amide] |
| 6.67 | – | COc1ccc(NC(=O)c2c(NCCc3cccnc3)cc[nH]c2=O)cc1N1CCN(C)CC1 [Example 6aa, 2-Oxo-4-(2-pyridin-3-yl-ethylamino)-1,2-dihydro-pyridine-3-carboxylic acid [4-methoxy-3-(4-methyl-piperazin-1-yl)-phenyl]-amide] |
| – | 4.82 to 6.30 | O=C(Nc1ccc(N2CCCC2)c(C(F)(F)F)c1)c1c(NCc2ccccn2)cc[nH]c1=O [Example 2j, 2-Oxo-4-[(pyridin-2-ylmethyl)-amino]-1,2-dihydro-pyridine-3-carboxylic acid (4-pyrrolidin-1-yl-3-trifluoromethyl-phenyl)-amide] |
| – | 4.82 to 6.30 | O=C(Nc1ccc(N2CCOCC2)c(F)c1)c1c(NCCc2cccc(Cl)c2)cc[nH]c1=O [Example 2a, 4-[2-(3-Chloro-phenyl)-ethylamino]-2-oxo-1,2-dihydro-pyridine-3-carboxylic acid (3-fluoro-4-morpholin-4-yl-phenyl)-amide] |
| – | 4.82 to 6.30 | CN1CCN(c2ccc(NC(=O)c3c(NC[C@@H](O)c4cccc(Cl)c4)cc[nH]c3=O)cc2)CC1 [Example 2p, 4-[(S)-2-(3-Chloro-phenyl)-2-hydroxy-ethylamino]-2-oxo-1,2-dihydro-pyridine-3-carboxylic acid [4-(4-methyl-piperazin-1-yl)-phenyl]-amide] |
| – | 4.82 to 6.30 | CN(C)c1cccc(NC(=O)c2c(NC[C@@H](O)c3cccc(Cl)c3)cc[nH]c2=O)c1 [Example 2w, 4-[(S)-2-(3-Chloro-phenyl)-2-hydroxy-ethylamino]-2-oxo-1,2-dihydro-pyridine-3-carboxylic acid (3-dimethylamino-phenyl)-amide] |
| – | 4.82 to 6.30 | O=C(Nc1ccc(N2CCOCC2)cc1)c1c(NCc2ccccn2)cc[nH]c1=O [Example 6r, 2-Oxo-4-[(pyridin-2-ylmethyl)-amino]-1,2-dihydro-pyridine-3-carboxylic acid (4-morpholin-4-yl-phenyl)-amide] |
| – | 4.82 to 6.30 | O=C(Nc1cccc(CN2CCCC2)c1)c1c(NCCc2ccccc2)cc[nH]c1=O [Example 6w, 2-Oxo-4-phenethylamino-1,2-dihydro-pyridine-3-carboxylic acid (3-pyrrolidin-1-ylmethyl-phenyl)-amide] |
| – | 4.82 to 6.30 | CC(=O)N1CCN(c2ccc(NC(=O)c3c(NCC(O)c4ccccc4)cc[nH]c3=O)cc2C(F)(F)F)CC1 (stereo not drawn) [Example 3, 4-(2-Hydroxy-2-phenyl-ethylamino)-2-oxo-1,2-dihydro-pyridine-3-carboxylic acid[4-(4-acetyl-piperazin-1-yl)-3-trifluoromethyl-phenyl]-amide] |
| – | 4.82 to 6.30 | CC(CNc1cc[nH]c(=O)c1C(=O)Nc1cccc(CN2CCCC2)c1)c1ccccc1 (stereo not drawn) [Example 6v, 2-Oxo-4-(2-phenyl-propylamino)-1,2-dihydro-pyridine-3-carboxylic acid (3-pyrrolidin-1-ylmethyl-phenyl)-amide] |
| – | 4.82 to 6.30 | CC(CNc1cc[nH]c(=O)c1C(=O)Nc1cccc(N2CCOCC2)c1)c1ccccc1 (stereo not drawn) [Example 6g, 2-Oxo-4-(2-phenyl-propylamino)-1,2-dihydro-pyridine-3-carboxylic acid (3-morpholin-4-yl-phenyl)-amide] |
| – | 4.82 to 6.30 | CS(=O)(=O)c1cccc(NC(=O)c2c(NC[C@@H](O)c3cccc(Cl)c3)cc[nH]c2=O)c1 [Example 4p, 4-[(S)-2-(3-Chloro-phenyl)-2-hydroxy-ethylamino]-2-oxo-1,2-dihydro-pyridine-3-carboxylic acid (3-methanesulfonyl-phenyl)-amide] |
| – | 4.82 to 6.30 | COc1ccc(NC(=O)c2c(NCC(C)c3ccccc3)cc[nH]c2=O)cc1N1CCN(C)CC1 (stereo not drawn) [Example 6j, 2-Oxo-4-(2-phenyl-propylamino)-1,2-dihydro-pyridine-3-carboxylic acid [4-methoxy-3-(4-methyl-piperazin-1-yl)-phenyl]-amide] |
